According to patent US20190060428A1, “FORMULATIONS FOR NEOPLASIA VACCINES AND METHODS OF PREPARING THEREOF” (The Broad Institue Inc., priority 2015, published 2019):

Test: physchem
Conditions: pH 6

Substance | solubility
H-RGQIKLADFRLARLYSSEESR-OH | > 2000 µg/mL
H-MSQDIKKADEQIESMTYSTERKT-OH | > 2000 µg/mL
H-ALCPASRALEEKKGNYVV-OH | > 2000 µg/mL
H-SHTQTTLFHTFYELLIQKNKHK-OH | > 2000 µg/mL
H-LSPREEFLRLCKKIMMRSIQ-OH | > 2000 µg/mL
H-STLPVISDSTTKRRWSALVIGL-OH | > 2000 µg/mL
H-LHTHYDYVSALHPVSTPSKEYTSA-OH | > 2000 µg/mL
H-AQRKLYQDVMHENFTNLLSVGHQP-OH | > 2000 µg/mL
H-VPDINMEKKLRKIRAQTQKHLDLYARDG-OH | > 2000 µg/mL
H-DHVSIILLSATIPNALEFADWIG-OH | < 2000 µg/mL
H-SQSSTPAMLFPAPAAHRTLTYLSQ-OH | > 2000 µg/mL
H-TISLLLIFYNTKEIARTEEHQE-OH | < 2000 µg/mL
H-AALCPASRALEEKKGNYV-OH | > 2000 µg/mL
H-IGALNPKRAAFFAEHYESWE-OH | < 2000 µg/mL
H-SAVSAASIPAEHINQATNGGGS-OH | > 2000 µg/mL
H-TAQFAPSPGQPPALSPSYPGHRLPLQQG-OH | > 2000 µg/mL
H-LKEMNEKVSFIKNSLLSLDSQVGHLQD-OH | < 2000 µg/mL
H-WDGPPENDMLLKEICGSLIP-OH | > 2000 µg/mL
H-SVLREDLGQLEYKYQYAYFRMGIKHPD-OH | < 2000 µg/mL
H-LENNANHDETSFLLPRKESNIVD-OH | > 2000 µg/mL
H-LHFIMPEKFSFWEDFEE-OH | < 2000 µg/mL
H-YLSHTLGAASSFMRPTVPPPQF-OH | > 2000 µg/mL
H-GSGALGAVGATKVPRNQDWL-OH | > 2000 µg/mL

Substance | solubility
H-AIISSLFVSYFLYR-OH | < 2000 µg/mL
H-EAAFSVGATGIITDYPTALRHYLDNHG-OH | < 2000 µg/mL
H-KLRTIPLSDNTIFRRICTIAKHLE-OH | > 2000 µg/mL
H-DPDVGVNSLQQYYLSPDLHFSLI-OH | < 2000 µg/mL
H-PASAKSRREFDKIELAYRR-OH | > 2000 µg/mL
H-LARDIPPAVTGKWKLSDLRRYGAVPSG-OH | > 2000 µg/mL
H-KHLPGVNFPGNQWNPVEGILPS-OH | > 2000 µg/mL
H-KLAWRGRISSSGCPSMTSPPSPMFGMTLHT-OH | > 2000 µg/mL
H-DPLMTCSEPERLTEILFQRAELE-OH | < 2000 µg/mL
H-SGSPPLRVSVGDFSQEFSPIQEAQQD-OH | > 2000 µg/mL
H-GHQKLPGKIHLFEAEFTQVAKKEPDG-OH | > 2000 µg/mL
H-GTKALQLHSIAGRWPRMEPWVVESMSLGVP-OH | > 2000 µg/mL
H-GDQYKATDFVADWAGTFKMVFTPKDGSG-OH | > 2000 µg/mL
H-DASDFLPDTQLFPHFTELLLPLDPLEGSSV-OH | > 2000 µg/mL
H-TKLKSKAPHWTNCILHEYKNLSTS-OH | > 2000 µg/mL
H-SHLASLKNNVSPVLRSHSFSDPSPKFA-OH | > 2000 µg/mL
H-SHNELADSGIPENSFNVSSLVE-OH | > 2000 µg/mL
H-EIHGKCENMTITSRGTTVTPTKETVSLG-OH | > 2000 µg/mL
H-HLLQKQTSIQSPSLYGNSSPPLNK-OH | > 2000 µg/mL
H-ISSLFVSYFLYRVVFHFE-OH | < 2000 µg/mL
H-SGQPAPEETVLFLGLLHGLLLILRRLRGG-OH | < 2000 µg/mL
H-LRVFIGNIAVNHAPVSLRPGLGLPPGAPPGTVP-OH | < 2000 µg/mL
H-PENDDLFMMPRIVDVTSLATEGG-OH | > 2000 µg/mL

Substance | solubility
H-RRGGALFASRPRFTPL-OH | > 2000 µg/mL
H-TLDDIKEWLEDEGQVLNIQMRRTLHK-OH | < 2000 µg/mL
H-NNQTNSPTTPNFGSSGSFNLPNSGD-OH | > 2000 µg/mL
H-DSPAGPRRKECTMALAPNFTANNR-OH | > 2000 µg/mL
H-RYNSTAATNEVSEVTVFSKSPVT-OH | > 2000 µg/mL
H-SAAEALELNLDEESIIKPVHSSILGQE-OH | > 2000 µg/mL
H-YFDVVERSTEKIVDTSLIFNI-OH | < 2000 µg/mL
H-SSPLGRANGRRFANPRDSFSAMGFQR-OH | > 2000 µg/mL
H-EYWKVLDGELEVAPEYPQSTARDWL-OH | < 2000 µg/mL
H-LMSNLAFADFCMRMYL-OH | < 2000 µg/mL
H-TSGSSTALPGSNPSTMDSGSGD-OH | < 2000 µg/mL
H-TWAGHVSTALARPLGAPWAEPGSCGPGTN-OH | > 2000 µg/mL
H-TLKEEVNELQYRQKQLELLITNLMRQVD-OH | < 2000 µg/mL
H-EQGPWQSEGQTWRAAGGRVPVPCPAAGPG-OH | > 2000 µg/mL
H-PGGDSGELITDAHELGVAHPPGY-OH | > 2000 µg/mL
H-TSRRLTGLLDHEVQAGRQ-OH | > 2000 µg/mL
H-FPVVQSTEDVFPQGLPNEYAFVT-OH | > 2000 µg/mL
H-VARNYLREAVSHNASLEVAILRD-OH | < 2000 µg/mL
H-SRNTGHLHPTPRFPLLRWTQEPQPLE-OH | > 2000 µg/mL
H-FYSNSTVSETQWKVTVTPR-OH | > 2000 µg/mL
H-GRMSPSQFARVPGYVGSPLAAMNPK-OH | > 2000 µg/mL
H-AAVRPEQRPAARGSRV-OH | > 2000 µg/mL
H-DGVSEEFWLVDLLPSTHYT-OH | < 2000 µg/mL

Substance | solubility
H-SPQSGGAATLAAQARLQPVHLDVWGEHERG-OH | > 2000 µg/mL
H-TTVTHERKQAKVVNPPIQEVGKGARK-OH | > 2000 µg/mL
H-ALSLTPGLRIGPSGLFLVFLAESAVDKGHPNRS-OH | > 2000 µg/mL
H-LMGRLQHTFKQKMTGVGASLEKR-OH | > 2000 µg/mL
H-SAVSAASIPAMHINQATNGGGS-OH | < 2000 µg/mL
H-LPDEVSGLEQLESIINFEKL-OH | > 2000 µg/mL
H-LSVPFTCGVNFGDSIEDLEI-OH | > 2000 µg/mL
H-GTEPEPAFQDDAVNAPLEFKMAAGSSG-OH | > 2000 µg/mL
H-VTSPKASPVTFPAAAFPTASPANKD-OH | > 2000 µg/mL
H-DHAPEFPAREMLLKYQKLLSQER-OH | > 2000 µg/mL
H-LTKLKFSLKKSFNFFDEYF-OH | < 2000 µg/mL
H-EDSDKLFESKAELADHQKF-OH | > 2000 µg/mL
H-STEVEPKESPHLARHRHLMKTLVKSLST-OH | > 2000 µg/mL
H-GPLQLPVTRKNMPLPGVVKLPPLPGS-OH | > 2000 µg/mL
H-AIYHKYYHYLYSYYLPASLKNMVD-OH | < 2000 µg/mL
H-RLVLGKFGDLTNNFSSPHAR-OH | > 2000 µg/mL
H-GSYLVALGAHTGEES-OH | > 2000 µg/mL
H-YRMYQKGQETSTNLIASIFA-OH | < 2000 µg/mL
H-HRPRPFSPGKQVSSAPLFMLDLYN-OH | > 2000 µg/mL
H-KGEKNGMTFSSTKDYVNNV-OH | > 2000 µg/mL
H-ADRRRQRSTFRAVLHFVEGGESEE-OH | < 2000 µg/mL

Next, values leading:

solubility | Substance
> 2000 µg/mL | H-LLDILDTAGREEYSAMRDQYMRT-OH
< 2000 µg/mL | H-SMWKGELYRQNRFASSKESAKLYGS-OH
> 2000 µg/mL | H-KMQRRNDDKSILMHGLVSLRESSRG-OH
> 2000 µg/mL | H-PAPPPAVPKEHPAPPAPPPASAPTP-OH
> 2000 µg/mL | H-LNTGLFRIKFKEPLENLI-OH
> 2000 µg/mL | H-DEQGREAELARSGPSAAGPVRLKPGLVPGL-OH
> 2000 µg/mL | H-SDAFSGLTALPQSILLFGP-OH
> 2000 µg/mL | H-DRSVLAKKLKFVTLVFRHGDRSPID-OH
< 2000 µg/mL | H-SERYIGTEGGGMDQSILFLAEEGTAK-OH
> 2000 µg/mL | H-SRLQTRKNKKLALSSTPSNIAPSD-OH
< 2000 µg/mL | H-FKMDRQGVTQVLSCLSYISALGMMT-OH
> 2000 µg/mL | H-DDNGNILDPDKTSTIALFKAHEV-OH
> 2000 µg/mL | H-DGGRQHSGPRRHSGAGPKPSSSEWAVCWAP-OH
< 2000 µg/mL | H-EEFNRRVRENPWDTQLWMAFVAFQDE-OH
< 2000 µg/mL | H-DVGVNSLQQYYLSPDLHFSLIQKENLD-OH
> 2000 µg/mL | H-YPEPQNKEAFVHSQMYSTDYDQI-OH
> 2000 µg/mL | H-SSELTAVNFPSFHVTSLKLMVSPTS-OH
> 2000 µg/mL | H-AESAQRQGPNGGGEQSANEF-OH
> 2000 µg/mL | H-VQLSIQDVIRRARLSTVPTAQRVALRSGWI-OH

solubility | Substance
< 2000 µg/mL | H-LNYLRTAKFLEMYGVDLHPVYG-OH
> 2000 µg/mL | H-DGAWPVLLDKFVEWYKDKQMS-OH
> 2000 µg/mL | H-TGKPEMDFVRLAQLFARARPMGLF-OH
< 2000 µg/mL | H-EDSKYQNLLPFFVGHNMLLVSEE-OH
> 2000 µg/mL | H-GSVLQFMPFTTVSELMKVSAMSSPKV-OH
> 2000 µg/mL | H-ASATEPANDSLFSPGAANLFSTYLAR-OH
> 2000 µg/mL | H-GLEQLESIINFEKL-OH
> 2000 µg/mL | H-DDSLHIQATYISGPVLAGSGD-OH
> 2000 µg/mL | H-NILHQEELIAQKKWEIEAKMEQK-OH
< 2000 µg/mL | H-TTTSVKKEELVLSEEDFQGITPGAQ-OH
> 2000 µg/mL | H-LLTDRNTSGTTFTLLGVSDYPELQVPLFLVFLA-OH
> 2000 µg/mL | H-TKRQVILLHTELERFLEYLPLRF-OH
> 2000 µg/mL | H-KGASLDAGWGSPRWTTTRMTSASAGRSTRA-OH
< 2000 µg/mL | H-KAHVEGDGVVEEIIRYHPFLYDRET-OH
> 2000 µg/mL | H-LVGQLKRVPRTGRVYRNVQRPESVS-OH
> 2000 µg/mL | H-NNSKKKWFLFQDSKKIQVEQPQ-OH
> 2000 µg/mL | H-RQRRGRLGLPGEAGLEGFEPSDALGPD-OH
> 2000 µg/mL | H-VPRIAELMNKKLPSFGPYLE-OH
> 2000 µg/mL | H-VDKNGRRRLVYLVENPGG-OH

solubility | Substance
> 2000 µg/mL | H-DLSYVSDQNGGVPDQILLHLRPTED-OH
> 2000 µg/mL | H-DSAVDKGHPNRSALSLTPGLRIGPSGLFLVFLA-OH
> 2000 µg/mL | H-PRVDLQGAELWKRLHEIGTEMIITK-OH
< 2000 µg/mL | H-DVTYDGHPVLGSPYTVEASL-OH
> 2000 µg/mL | H-VNGISSQPQVPFYPNLQKSQYYSTV-OH
> 2000 µg/mL | H-PAAVDSVTIPPAQCYLSLLHL-OH
> 2000 µg/mL | H-AHRQGEKQHLLPVFSRLALRLPWRHSVQL-OH
> 2000 µg/mL | H-DATFSDGSLGQLVKNTSATYALS-OH
> 2000 µg/mL | H-LPVFIGNIAVNHAPVSLRPGLGLPPGAPPGTVP-OH
> 2000 µg/mL | H-DKGHQFHVHPLLHSGDDLDP-OH
> 2000 µg/mL | H-SPIKLVQKVASKIPFPDRITEESV-OH
> 2000 µg/mL | H-AAVDSVTIPPAQCYLSLLHLQQRRMQSA-OH
< 2000 µg/mL | H-AAAFPSQRTSWEFLQSLVSIKQEKPA-OH
> 2000 µg/mL | H-VDKNGRRRLVYLVENPGGYVAYS-OH
> 2000 µg/mL | H-LGETMGQVTEKLQPTYMEET-OH
> 2000 µg/mL | H-IAMGFPQKDLKAYTGTIL-OH
> 2000 µg/mL | H-LEEVAQRSHAVRSPGSPLILEVG-OH
< 2000 µg/mL | H-KQGWTTEGIWKDVYIIKL-OH
> 2000 µg/mL | H-MAGPKGFQYRALYPFRRER-OH
